Results as given in US20100129353A1, “COMBINATION AND TREATMENT FOR MULTIPLE SCLEROSIS” (Laboratoires Serono S.A., priority 2004, published 2010).

Key:
[1] = test system: brain lesions associated with progression of MS; test: Study of sixty patients with chronic multiple sclerosis: MRI brain lesions after one year of treatment; type: in vivo; details: seven days once per month for one year, MRI at month 12
Description: A study of sixty patients with chronic multiple sclerosis is undertaken. Each patient is first examined for normal hepatic, renal, and bone marrow functioning to establish baseline values. [table] Each of the patients in Groups 2-4 and 8-10 is treated with 2-CdA dissolved in sterile preservative-free isotonic saline, whereas patients in Groups 1 and 5-7 receive a placebo (saline). The 2-CdA is administered intravenously for a total of seven days, once per month for a total of one year. Each of the patients in Groups 5-10 is treated with natalizumab, whereas Groups 1-4 received placebo (saline). The natalizumab is administered intravenously for a total of seven days, once per month for a total of one year, with the treatment being on the same day as 2-CdA treatment. Patients are monitored to determine whether there is any progression or improvement of brain lesions associated with progression of MS. All patients have a baseline and MRI study (brain or spinal cord, according to localization of the lesions) at month 12.

[2] = test system: MRI-measured brain lesions; details: MS patients, cited from earlier work

| Molecule | change in brain lesions (MRI) ([1]; Group 5: natalizumab 1 mg/kg i.v.) | change in brain lesions (MRI) ([1]; Group 6: natalizumab 3 mg/kg i.v.) | change in brain lesions (MRI) ([1]; Group 7: natalizumab 6 mg/kg i.v.) | MRI-measured brain lesions ([2]; Phase II study as printed (Rice et al., 2000)) | adverse effects ([2]; observed with the highest doses) | change in brain lesions (MRI) ([1]; Group 2: 2-CdA 0.25 mg/kg i.v.) | change in brain lesions (MRI) ([1]; Group 3: 2-CdA 0.5 mg/kg i.v.) | change in brain lesions (MRI) ([1]; Group 4: 2-CdA 1 mg/kg i.v.) |
| --- | --- | --- | --- | --- | --- | --- | --- | --- |
| natalizumab: anti-alpha-4 integrin antibody used as the second agent in Example 1 | increase in brain lesions | decrease in brain lesions | decrease in brain lesions |  |  |  |  |  |
| Nc1nc(Cl)nc2c1ncn2[C@H]1C[C@H](O)[C@@H](CO)O1 [2-CdA, 2-chloro-2′-deoxyadenosine] |  |  |  | significantly reduced MRI-measured brain lesions | increased incidence of infections related to compromised immune function or myelosuppression | increase in brain lesions | increase in brain lesions | decrease in brain lesions |
